The structures appear in SMILES notation.

For the assay, the system named is osteoclasts derived from RAW-GFP deposited onto a layer of MC3T3-type osteoblast cells. Put plainly: Crossing of the osteoblast layer by osteoclasts in the bone system model (confocal microscopy). It counts as cell-based, murine. The note with it: PP2 at 10 μM; untreated osteoclasts cross the layer after 1 hour to 1 hour 30 min; FIG. 4. Here is the method:
FIG. 4, images obtained by confocal microscopy 3D analysis, showing the organization of the two cell types according to the section along Z, in order to determine the effects of PP2 (FIG. 4B) in comparison with the control trial (FIG. 4A).
Cells of the murine osteoblast line MC 3T3 are placed in culture in α-MEM medium supplemented with 10% by volume of fetal calf serum, 10^−8M dexamethasone and 0.028 mM ascorbic acid. The cells are then detached and seeded at confluence onto the mineralized support.
The osteoclasts derived from human or murine primary cultures or from lines (for example, the RAW line or the human line GCT23) are obtained after 7 days of differentiation as described in Destaing et al. (Mol Biol Cell, Podosomes display actin turnover and dynamic self-organization in osteoclasts expressing actin-green fluorescent protein, 14(2):407-16, 2003). The osteoclast precursors are cultured in the presence of α-MEM medium supplemented with 10% by volume of fetal calf serum and of two recombinant cytokines: M-CSF and RANK-L ([…]). The cells are placed at 37° C. and 5% of CO2 and the medium is changed every two days for 7-8 days. The differentiated osteoclasts are detached with a solution of EDTA at 0.25 mM diluted in 1×PBS. The osteoclasts are seeded at a density of 10 cells/mm^2.
An inhibitor of the Src tyrosine kinase, PP2, was tested in the model according to the invention. […]

Consider `CC(C)(C)n1nc(-c2ccc(Cl)cc2)c2c(N)ncnc21` [PP2], for which the “crossing (invasion) of the osteoblast cell layer by the osteoclasts” value is “the osteoclasts no longer cross the osteoblast cell layer”.

The record behind these values is patent publication US20070065803A1, “Patterns for a skeletal system” (CENTRE NATIONAL DE LA RECHERCHE SCIENTIFIQUE, priority 2003, published 2007).
